Test results: patent publication US6737383B1, “Herbicidal oxadiazolidines” (priority 1999, dated 2004)

Tests used:
rice = assay: Test B flood test rice; format: in vivo, Oryza sativa
Procedure, shortened: (§1)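 Flood test on plants grown to the 2-leaf stage; treated plants kept in greenhouse twelve to sixteen days, then visually rated against controls on a 0 (no effect) to 10 (complete control) scale.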

morningglory = assay: Test B pre/postemergence morningglory; format: in vivo, Ipomoea hederacea; details: for Plant response rating, Morningglory: scale of 0 to 10 where 0 is no effect and 10 is complete control
Procedure, shortened: (§2)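 Herbicidal effect was estimated by eye on a ten-point control scale after plants spent twelve to sixteen days in a greenhouse following soil or foliar treatment. Foliar sprays targeted plants at one to four leaves; all doses were formulated in a non-phytotoxic solvent with surfactant.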

giant foxtail = assay: Test B pre/postemergence giant foxtail; format: in vivo, Setaria faberii
Procedure, shortened: as §2

rape = assay: Test B pre/postemergence rape; format: in vivo, Brassica napus; details: for Plant response rating, Rape: scale of 0 to 10 where 0 is no effect and 10 is complete control
Procedure, shortened: as §2

pigweed = assay: Test B pre/postemergence pigweed; format: in vivo, Amaranthus retroflexus; details: for Plant response rating, Redroot pigweed: scale of 0 to 10 where 0 is no effect and 10 is complete control
Procedure, shortened: as §2

corn = assay: Test B pre/postemergence corn; format: in vivo, Zea mays
Procedure, shortened: as §2

purple nutsedge = assay: Test B pre/postemergence purple nutsedge; format: in vivo, Cyperus rotundus
Procedure, shortened: as §2

blackgrass = assay: Test B pre/postemergence blackgrass; format: in vivo, Alopecurus myosuroides
Procedure, shortened: as §2

sugar beet = assay: Test B pre/postemergence sugar beet; format: in vivo, Beta vulgaris; details: for Plant response rating, Sugarbeets: scale of 0 to 10 where 0 is no effect and 10 is complete control
Procedure, shortened: as §2

bamyardgrass = assay: Test B flood test barnyardgrass; format: in vivo, Echinochloa crus-galli
Procedure, shortened: as §1

wild oat = assay: Test B pre/postemergence wild oat; format: in vivo, Avena fatua; details: for Plant response rating, Wild oats: scale of 0 to 10 where 0 is no effect and 10 is complete control
Procedure, shortened: as §2

wheat = assay: Test B pre/postemergence wheat; format: in vivo, Triticum aestivum; details: for Plant response rating, Wheat: scale of 0 to 10 where 0 is no effect and 10 is complete control
Procedure, shortened: as §2

surinam grass = assay: Test B pre/postemergence surinam grass; format: in vivo, Brachiaria decumbens
Procedure, shortened: as §2

crabgrass = assay: Test B pre/postemergence crabgrass; format: in vivo, Digitaria sanguinalis
Procedure, shortened: as §2

smallflower flatsedge = assay: Test B flood test smallflower flatsedge; format: in vivo, Cyperus difformis
Procedure, shortened: as §1

bedstraw = assay: Test B pre/postemergence bedstraw; format: in vivo, Galium aparine; details: for Bedstraw plant response rating: scale 0 to 10, 0 is no effect, 10 is complete control
Procedure, shortened: as §2

[1] = Rate 62 g/ha, flood test species, Pre-emergence, visual evaluation after twelve to sixteen days
[2] = Rate 125 g/ha, under heading Pre-emergence, flood test species, visual evaluation after twelve to sixteen days
[3] = Rate 250 g/ha, Pre-emergence (flood test species), scale 0 to 10, 0 is no effect, 10 is complete control
[4] = Rate 500 g/ha, Pre-emergence, flood test species, scale 0 to 10 (0 no effect, 10 complete control)
[5] = Postemergence, Rate 250 g/ha, scale 0 to 10
[6] = Preemergence, Rate 250 g/ha, scale 0 to 10, 0 is no effect, 10 is complete control
[7] = Preemergence, Rate 500 g/ha, scale 0 to 10, 0 is no effect, 10 is complete control
[8] = Rate 62 g/ha, Postemergence, scale 0 to 10 (0 no effect, 10 complete control)
[9] = Rate 125 g/ha, Postemergence, scale 0 to 10, 0 is no effect, 10 is complete control
[10] = Postemergence, Rate 500 g/ha, scale of 0 to 10 where 0 is no effect and 10 is complete control
[11] = Preemergence, Rate 62 g/ha, scale of 0 to 10 where 0 is no effect and 10 is complete control
[12] = Preemergence, Rate 125 g/ha, scale of 0 to 10 where 0 is no effect and 10 is complete control

CC(C)N(C(=O)n1oc(=O)n(CC(=O)N(C)C)c1=O)c1ccc(Cl)cc1 [Compound 477] was tested, and the “Plant response rating, Rice (0 to 10 scale, 0 is no effect, 10 is complete control)” value (rice; [1]) was 0, the “Rice plant response rating (0 to 10 scale, 0 is no effect, 10 is complete control)” value (rice; [2]) was 0 and the “Rice plant response rating” value (rice; [3]) was 0. For the same compound, the “Rice plant response rating” value (rice; [4]) was 0, the “Morningglory plant response rating” value (morningglory; [5]) was 10 and the “Plant response rating, Morningglory” value (morningglory; Preemergence, Rate 62 g/ha) was 0. For the same compound, the “Plant response rating, Morningglory” value (morningglory; Preemergence, Rate 125 g/ha) was 0, the “Morningglory plant response rating” value (morningglory; [6]) was 0 and the “Morningglory plant response rating” value (morningglory; [7]) was 0. For the same compound, the “Morningglory plant response rating” value (morningglory; [8]) was 6, the “Morningglory plant response rating” value (morningglory; [9]) was 7 and the “Giant foxtail plant response rating” value (giant foxtail; [5]) was 6. The “Giant foxtail plant response rating” value (giant foxtail; [10]) was 7, the “Plant response rating, Giant foxtail” value (giant foxtail; [11]) was 6 and the “Plant response rating, Giant foxtail” value (giant foxtail; [12]) was 6. The “Giant foxtail plant response rating” value (giant foxtail; [6]) was 9, the “Giant foxtail plant response rating” value (giant foxtail; [7]) was 10 and the “Giant foxtail plant response rating” value (giant foxtail; [8]) was 2. For the same compound, the “Giant foxtail plant response rating” value (giant foxtail; [9]) was 2, the “Rape plant response rating” value (rape; [5]) was 1 and the “Plant response rating, Rape” value (rape; Preemergence, Rate 62 g/ha) was 0. The “Plant response rating, Rape” value (rape; Preemergence, Rate 125 g/ha) was 0, the “Rape plant response rating” value (rape; [6]) was 0 and the “Rape plant response rating” value (rape; [7]) was 2. For the same compound, the “Rape plant response rating” value (rape; [8]) was 0, the “Rape plant response rating” value (rape; [9]) was 0 and the “Redroot pigweed plant response rating” value (pigweed; [5]) was 2. For the same compound, the “Plant response rating, Redroot pigweed” value (pigweed; Preemergence, Rate 62 g/ha) was 0, the “Plant response rating, Redroot pigweed” value (pigweed; Preemergence, Rate 125 g/ha) was 1 and the “Redroot pigweed plant response rating” value (pigweed; [6]) was 6. The “Redroot pigweed plant response rating” value (pigweed; [7]) was 8, the “Redroot pigweed plant response rating” value (pigweed; [8]) was 0 and the “Redroot pigweed plant response rating” value (pigweed; [9]) was 0. For the same compound, the “Corn plant response rating” value (corn; [5]) was 0, the “Corn plant response rating” value (corn; [10]) was 0 and the “Plant response rating, Corn” value (corn; [11]) was 0. For the same compound, the “Plant response rating, Corn” value (corn; [12]) was 0, the “Corn plant response rating” value (corn; [6]) was 0 and the “Corn plant response rating” value (corn; [7]) was 0. The “Corn plant response rating” value (corn; [8]) was 0, the “Corn plant response rating” value (corn; [9]) was 0 and the “Nutsedge plant response rating” value (purple nutsedge; [5]) was 0. The “Plant response rating, Nutsedge” value (purple nutsedge; [12]) was 0, the “Nutsedge plant response rating” value (purple nutsedge; [6]) was 0 and the “Nutsedge plant response rating” value (purple nutsedge; [7]) was 0. The “Nutsedge plant response rating” value (purple nutsedge; [8]) was 0, the “Nutsedge plant response rating” value (purple nutsedge; [9]) was 0 and the “Blackgrass plant response rating” value (blackgrass; [5]) was 6. For the same compound, the “Blackgrass plant response rating” value (blackgrass; [10]) was 6, the “Plant response rating, Blackgrass” value (blackgrass; [11]) was 0 and the “Plant response rating, Blackgrass” value (blackgrass; [12]) was 1. The “Blackgrass plant response rating” value (blackgrass; [6]) was 7, the “Blackgrass plant response rating” value (blackgrass; [7]) was 8 and the “Blackgrass plant response rating” value (blackgrass; [8]) was 0. The “Blackgrass plant response rating” value (blackgrass; [9]) was 0, the “Sugarbeets plant response rating” value (sugar beet; [5]) was 0 and the “Plant response rating, Sugarbeets” value (sugar beet; Preemergence, Rate 62 g/ha) was 0. For the same compound, the “Plant response rating, Sugarbeets” value (sugar beet; Preemergence, Rate 125 g/ha) was 0, the “Sugarbeets plant response rating” value (sugar beet; [6]) was 0 and the “Sugarbeets plant response rating” value (sugar beet; [7]) was 0. For the same compound, the “Sugarbeets plant response rating” value (sugar beet; [8]) was 0, the “Sugarbeets plant response rating” value (sugar beet; [9]) was 0 and the “Plant response rating, Barnyardgrass (0 to 10 scale, 0 is no effect, 10 is complete control)” value (bamyardgrass; [1]) was 0. For the same compound, the “Barnyardgrass plant response rating (0 to 10 scale, 0 is no effect, 10 is complete control)” value (bamyardgrass; [2]) was 0, the “Barnyardgrass plant response rating” value (bamyardgrass; [3]) was 0 and the “Barnyardgrass plant response rating” value (bamyardgrass; [4]) was 0. For the same compound, the “Wild oats plant response rating” value (wild oat; [5]) was 0, the “Plant response rating, Wild oats” value (wild oat; Preemergence, Rate 62 g/ha) was 0 and the “Plant response rating, Wild oats” value (wild oat; Preemergence, Rate 125 g/ha) was 5. For the same compound, the “Wild oats plant response rating” value (wild oat; [6]) was 5, the “Wild oats plant response rating” value (wild oat; [7]) was 7 and the “Wild oats plant response rating” value (wild oat; [8]) was 0. For the same compound, the “Wild oats plant response rating” value (wild oat; [9]) was 0, the “Wheat plant response rating” value (wheat; [5]) was 0 and the “Plant response rating, Wheat” value (wheat; Preemergence, Rate 62 g/ha) was 0. The “Plant response rating, Wheat” value (wheat; Preemergence, Rate 125 g/ha) was 0, the “Wheat plant response rating” value (wheat; [6]) was 0 and the “Wheat plant response rating” value (wheat; [7]) was 0. The “Wheat plant response rating” value (wheat; [8]) was 0, the “Wheat plant response rating” value (wheat; [9]) was 0 and the “B. signalgrass plant response rating” value (surinam grass; Postemergence, Rate 250 g/ha, scale 0 to 10, 0 no effect, 10 complete control) was 5. For the same compound, the “B. signalgrass plant response rating” value (surinam grass; [10]) was 5, the “Plant response rating, B. signalgrass” value (surinam grass; [11]) was 0 and the “Plant response rating, B. signalgrass” value (surinam grass; [12]) was 2. The “B. signalgrass plant response rating” value (surinam grass; [6]) was 4, the “B. signalgrass plant response rating” value (surinam grass; [7]) was 6 and the “B. signalgrass plant response rating” value (surinam grass; [8]) was 0. For the same compound, the “B. signalgrass plant response rating” value (surinam grass; [9]) was 0, the “Crabgrass plant response rating” value (crabgrass; [5]) was 5 and the “Crabgrass plant response rating” value (crabgrass; [10]) was 7. The “Plant response rating, Crabgrass” value (crabgrass; [11]) was 8, the “Plant response rating, Crabgrass” value (crabgrass; [12]) was 8 and the “Crabgrass plant response rating” value (crabgrass; [6]) was 10. The “Crabgrass plant response rating” value (crabgrass; [7]) was 10, the “Crabgrass plant response rating” value (crabgrass; [8]) was 1 and the “Crabgrass plant response rating” value (crabgrass; [9]) was 2. The “Plant response rating, S. Flatsedge (0 to 10 scale, 0 is no effect, 10 is complete control)” value (smallflower flatsedge; [1]) was 0, the “S. Flatsedge plant response rating (0 to 10 scale, 0 is no effect, 10 is complete control)” value (smallflower flatsedge; [2]) was 0 and the “S. Flatsedge plant response rating” value (smallflower flatsedge; [3]) was 0. The “S. Flatsedge plant response rating” value (smallflower flatsedge; [4]) was 0, the “Plant response rating, Bedstraw” value (bedstraw; [11]) was 0 and the “Bedstraw plant response rating” value (bedstraw; Preemergence, Rate 500 g/ha) was 3. For the same compound, the “Bedstraw plant response rating” value (bedstraw; Rate 125 g/ha, Postemergence) was 0.
